Counter-ions that a name gives are not always drawn. Like-named read-outs stand apart in the source and are kept apart here.
Legend:
Assay in all cases: AK assay 384-well format, Prestwick library screening
E. faecium = assay type: cell-based, Enterococcus faecium; conditions: 50 μM final drug concentration; for fold induction at 50 µM: Enterococcus faecium, 3 h
[1] = tested on: S. aureus strain USA300-0114; assay type: cell-based, Staphylococcus aureus; conditions: 50 μM final drug concentration; for fold induction at 50 µM: Staphylococcus aureus, USA300, 3 h
K. pneumoniae = assay type: cell-based, Klebsiella pneumoniae; conditions: 50 μM final drug concentration; for fold induction at 50 µM: Klebsiella pneumoniae, 3 h
[2] = tested on: A. baumannii strain 98-37-09; assay type: cell-based, Acinetobacter baumannii; conditions: 50 μM final drug concentration; for fold induction at 50 µM: Acinetobacter baumannii, 983709, 3 h
P. aeruginosa = assay type: cell-based, Pseudomonas aeruginosa; conditions: 50 μM final drug concentration; for fold induction at 50 µM: Pseudomonas aeruginosa, 3 h
E. cloacae = assay type: cell-based, Enterobacter cloacae; conditions: 50 μM final drug concentration; for fold induction at 50 µM: Enterobacter cloacae, 3 h
E. coli = assay type: cell-based, Escherichia coli; conditions: 50 μM final drug concentration; for fold induction at 50 µM: Escherichia coli, 3 h
[3] = planktonic, […], read-out: AK-based Prestwick Library Screening Results, E. faecium (fold increase in extracellular AK activity)
[4] = planktonic, […], read-out: AK-based Prestwick Library Screening Results, S. aureus (fold increase in extracellular AK activity)
[5] = planktonic, […], read-out: AK-based Prestwick Library Screening Results, K. pneumoniae (fold increase in extracellular AK activity)
[6] = planktonic, […], read-out: AK-based Prestwick Library Screening Results, A. baumannii (fold increase in extracellular AK activity)
[7] = planktonic, […], read-out: AK-based Prestwick Library Screening Results, P. aeruginosa (fold increase in extracellular AK activity)
[8] = planktonic, […], read-out: AK-based Prestwick Library Screening Results, E. cloacae (fold increase in extracellular AK activity)
[9] = planktonic, […], read-out: AK-based Prestwick Library Screening Results, E. coli (fold increase in extracellular AK activity)
[10] = 384-well format, cutoff for positive-scoring molecules 3-fold increase, read-out: AK-based Prestwick Library Screening Results, E. faecium (increase in extracellular AK activity)
[11] = 384-well format, cutoff for positive-scoring molecules 3-fold increase, read-out: AK-based Prestwick Library Screening Results, S. aureus (increase in extracellular AK activity)
[12] = 384-well format, cutoff for positive-scoring molecules 3-fold increase, read-out: AK-based Prestwick Library Screening Results, K. pneumoniae (increase in extracellular AK activity)
[13] = 384-well format, cutoff for positive-scoring molecules 3-fold increase, read-out: AK-based Prestwick Library Screening Results, A. baumannii (increase in extracellular AK activity)
[14] = 384-well format, cutoff for positive-scoring molecules 3-fold increase, read-out: AK-based Prestwick Library Screening Results, P. aeruginosa (increase in extracellular AK activity)
[15] = 384-well format, cutoff for positive-scoring molecules 3-fold increase, read-out: AK-based Prestwick Library Screening Results, E. cloacae (increase in extracellular AK activity)
[16] = 384-well format, cutoff for positive-scoring molecules 3-fold increase, read-out: AK-based Prestwick Library Screening Results, E. coli (increase in extracellular AK activity)
[17] = cutoff for positive-scoring molecules 3-fold increase
[18] = 384-well format, cutoff for positive-scoring molecules 3-fold increase
[19] = planktonic E. faecium, positive cutoff 3-fold increase, read-out: AK-based Prestwick library screening result, E. faecium (fold increase in extracellular AK activity)
[20] = planktonic S. aureus, positive cutoff 3-fold increase, read-out: AK-based Prestwick library screening result, S. aureus (fold increase in extracellular AK activity)
[21] = planktonic K. pneumoniae, positive cutoff 3-fold increase, read-out: AK-based Prestwick library screening result, K. pneumoniae (fold increase in extracellular AK activity)
[22] = planktonic A. baumannii, positive cutoff 3-fold increase, read-out: AK-based Prestwick library screening result, A. baumannii (fold increase in extracellular AK activity)
[23] = planktonic P. aeruginosa, positive cutoff 3-fold increase, read-out: AK-based Prestwick library screening result, P. aeruginosa (fold increase in extracellular AK activity)
[24] = planktonic E. cloacae, positive cutoff 3-fold increase, read-out: AK-based Prestwick library screening result, E. cloacae (fold increase in extracellular AK activity)
[25] = planktonic E. coli, positive cutoff 3-fold increase, read-out: AK-based Prestwick library screening result, E. coli (fold increase in extracellular AK activity)

Compound `C=C1[C@@H]2CC[C@H]3[C@]4(C)C[C@H](O[C@@H]5O[C@H](CO)[C@@H](OS(=O)(=O)O)[C@H](OS(=O)(=O)O)[C@H]5OC(=O)CC(C)C)C[C@@H](C(=O)O)[C@H]4CC[C@]3(C2)[C@@H]1O` [Atractyloside potassium salt] has a fold induction at 50 µM (E. faecium; [3]) of 0.9, a fold induction at 50 µM [1, 4] of 0.7 and a fold induction at 50 µM (K. pneumoniae; [5]) of 0.6. It also gave a fold induction at 50 µM [2, 6] of 0.8, a fold induction at 50 µM (P. aeruginosa; [7]) of 0.6 and a fold induction at 50 µM (E. cloacae; [8]) of 0.8. The fold induction at 50 µM (E. coli; [9]) was 0.7.
Compound `COc1ccc(CC2c3cc(OC)c(OC)cc3CC[N+]2(C)CCC(=O)OCCCCCOC(=O)CC[N+]2(C)CCc3cc(OC)c(OC)cc3C2Cc2ccc(OC)c(OC)c2)cc1OC` (centres unmarked) [Atracurium besylate] has a fold induction at 50 µM (E. faecium; [10]) of 0.8, a fold induction at 50 µM [1, 11] of 0.5 and a fold induction at 50 µM (K. pneumoniae; [12]) of 0.5. It also gave a fold induction at 50 µM [2, 13] of 0.4, a fold induction at 50 µM (P. aeruginosa; [14]) of 0.4 and a fold induction at 50 µM (E. cloacae; [15]) of 0.3. It also gave a fold induction at 50 µM (E. coli; [16]) of 0.5.
`CC1=CC(=O)C2=C(C)C[C@H](O)[C@@H]3[C@H](OC(=O)[C@H]3C)[C@H]12` [Austricine hydrate] gave a fold induction at 50 µM (E. faecium; [3]) of 1.1, a fold induction at 50 µM [1, 4] of 1.2 and a fold induction at 50 µM (K. pneumoniae; [5]) of 1. It also gave a fold induction at 50 µM [2, 6] of 1, a fold induction at 50 µM (P. aeruginosa; [7]) of 1.1 and a fold induction at 50 µM (E. cloacae; [8]) of 1.3. The fold induction at 50 µM (E. coli; [9]) was 1.2.
With `OC(c1ccccc1)(c1ccccc1)C1CCNCC1` [Azacyclonol] the fold induction at 50 µM (E. faecium; 384-well format, […], read-out: AK-based Prestwick Library Screening Results, E. faecium (increase in extracellular AK activity)) was 0.9, the fold induction at 50 µM ([1]; 384-well format, […], read-out: AK-based Prestwick Library Screening Results, S. aureus (increase in extracellular AK activity)) was 0.7 and the fold induction at 50 µM (K. pneumoniae; 384-well format, […], read-out: AK-based Prestwick Library Screening Results, K. pneumoniae (increase in extracellular AK activity)) was 0.6. For the same compound, the fold induction at 50 µM ([2]; 384-well format, […], read-out: AK-based Prestwick Library Screening Results, A. baumannii (increase in extracellular AK activity)) was 0.6, the fold induction at 50 µM (P. aeruginosa; 384-well format, […], read-out: AK-based Prestwick Library Screening Results, P. aeruginosa (increase in extracellular AK activity)) was 0.6 and the fold induction at 50 µM (E. cloacae; 384-well format, […], read-out: AK-based Prestwick Library Screening Results, E. cloacae (increase in extracellular AK activity)) was 0.9. For the same compound, the fold induction at 50 µM (E. coli; 384-well format, […], read-out: AK-based Prestwick Library Screening Results, E. coli (increase in extracellular AK activity)) was 0.6.
`Nc1ncn([C@@H]2O[C@H](CO)[C@@H](O)[C@H]2O)c(=O)n1` [Azacytidine-5] was tested, and the “AK-based Prestwick Library Screening Results, E. faecium (fold increase in extracellular AK activity)” value (E. faecium; [17]) was 1.0, the “AK-based Prestwick Library Screening Results, S. aureus (fold increase in extracellular AK activity)” value [1, 17] was 1.2 and the “AK-based Prestwick Library Screening Results, K. pneumoniae (fold increase in extracellular AK activity)” value (K. pneumoniae; [17]) was 0.9. The “AK-based Prestwick Library Screening Results, A. baumannii (fold increase in extracellular AK activity)” value [2, 17] was 1.4, the “AK-based Prestwick Library Screening Results, P. aeruginosa (fold increase in extracellular AK activity)” value (P. aeruginosa; [17]) was 1.2 and the “AK-based Prestwick Library Screening Results, E. cloacae (fold increase in extracellular AK activity)” value (E. cloacae; [17]) was 1.5. The “AK-based Prestwick Library Screening Results, E. coli (fold increase in extracellular AK activity)” value (E. coli; [17]) was 2.2.
For `Nc1nc(O)c2[nH]nnc2n1` [Azaguanine-8], the “AK-based Prestwick Library Screening Results, E. faecium (increase in extracellular AK activity)” value (E. faecium; [18]) was 0.8, the “AK-based Prestwick Library Screening Results, S. aureus (increase in extracellular AK activity)” value [1, 18] was 0.6 and the “AK-based Prestwick Library Screening Results, K. pneumoniae (increase in extracellular AK activity)” value (K. pneumoniae; [18]) was 0.3. For the same compound, the “AK-based Prestwick Library Screening Results, A. baumannii (increase in extracellular AK activity)” value [2, 18] was 0.3, the “AK-based Prestwick Library Screening Results, P. aeruginosa (increase in extracellular AK activity)” value (P. aeruginosa; [18]) was 0.3 and the “AK-based Prestwick Library Screening Results, E. cloacae (increase in extracellular AK activity)” value (E. cloacae; [18]) was 0.3. For the same compound, the “AK-based Prestwick Library Screening Results, E. coli (increase in extracellular AK activity)” value (E. coli; [18]) was 0.4.
`O=C(CCCN1CCN(c2ccccn2)CC1)c1ccc(F)cc1` [Azaperone] showed a fold induction at 50 µM (E. faecium; [19]) of 1, a fold induction at 50 µM [1, 20] of 1.2 and a fold induction at 50 µM (K. pneumoniae; [21]) of 1. It also gave a fold induction at 50 µM [2, 22] of 1.2, a fold induction at 50 µM (P. aeruginosa; [23]) of 1 and a fold induction at 50 µM (E. cloacae; [24]) of 1.9. It also gave a fold induction at 50 µM (E. coli; [25]) of 1.1.
With `CCCC1C(=O)N2C(N(C)C)=Nc3ccc(C)cc3N2C1=O` (centres unmarked) [Azapropazone] the fold induction at 50 µM (E. faecium; [19]) was 1, the fold induction at 50 µM [1, 20] was 0.8 and the fold induction at 50 µM (K. pneumoniae; [21]) was 0.9. It also gave a fold induction at 50 µM [2, 22] of 0.9, a fold induction at 50 µM (P. aeruginosa; [23]) of 1 and a fold induction at 50 µM (E. cloacae; [24]) of 1.5. For the same compound, the fold induction at 50 µM (E. coli; [25]) was 1.1.
In the case of `Cn1cnc([N+](=O)[O-])c1Sc1ncnc2nc[nH]c12` [Azathioprine], the fold induction at 50 µM (E. faecium; [10]) is reported as 0.8, the fold induction at 50 µM [1, 11] is reported as 0.7 and the fold induction at 50 µM (K. pneumoniae; [12]) is reported as 0.5. The fold induction at 50 µM [2, 13] was 0.7, the fold induction at 50 µM (P. aeruginosa; [14]) was 0.6 and the fold induction at 50 µM (E. cloacae; [15]) was 0.8. For the same compound, the fold induction at 50 µM (E. coli; [16]) was 0.6.
In the case of `Cc1n[nH]c(=O)[nH]c1=O` [Azathymine, 6], the “AK-based Prestwick Library Screening Results: E. faecium (increase in extracellular AK activity)” value (E. faecium; planktonic E. faecium, 384-well, cutoff for positive-scoring molecules 3-fold increase) is reported as 0.9, the “AK-based Prestwick Library Screening Results: S. aureus (increase in extracellular AK activity)” value ([1]; planktonic S. aureus, 384-well, cutoff for positive-scoring molecules 3-fold increase) is reported as 0.4 and the “AK-based Prestwick Library Screening Results: K. pneumoniae (increase in extracellular AK activity)” value (K. pneumoniae; planktonic K. pneumoniae, 384-well, cutoff for positive-scoring molecules 3-fold increase) is reported as 0.5. For the same compound, the “AK-based Prestwick Library Screening Results: A. baumannii (increase in extracellular AK activity)” value ([2]; planktonic A. baumannii, 384-well, cutoff for positive-scoring molecules 3-fold increase) was 0.5, the “AK-based Prestwick Library Screening Results: P. aeruginosa (increase in extracellular AK activity)” value (P. aeruginosa; planktonic P. aeruginosa, 384-well, cutoff for positive-scoring molecules 3-fold increase) was 0.6 and the “AK-based Prestwick Library Screening Results: E. cloacae (increase in extracellular AK activity)” value (E. cloacae; planktonic E. cloacae, 384-well, cutoff for positive-scoring molecules 3-fold increase) was 0.6. The “AK-based Prestwick Library Screening Results: E. coli (increase in extracellular AK activity)” value (E. coli; planktonic E. coli, 384-well, […]) was 0.6.
With `CC1(C)S[C@@H]2[C@H](NC(=O)[C@H](NC(=O)N3CCNC3=O)c3ccccc3)C(=O)N2[C@H]1C(=O)O` [Azlocillin sodium salt] the fold induction at 50 µM (E. faecium; planktonic, cutoff for positive-scoring molecules 3-fold increase, read-out: AK-based Prestwick Library Screening Results, E. faecium (fold increase in extracellular AK activity)) was 0.9, the fold induction at 50 µM ([1]; planktonic, cutoff for positive-scoring molecules 3-fold increase, read-out: AK-based Prestwick Library Screening Results, S. aureus (fold increase in extracellular AK activity)) was 0.4 and the fold induction at 50 µM (K. pneumoniae; planktonic, cutoff for positive-scoring molecules 3-fold increase, read-out: AK-based Prestwick Library Screening Results, K. pneumoniae (fold increase in extracellular AK activity)) was 0.7. For the same compound, the fold induction at 50 µM ([2]; planktonic, cutoff for positive-scoring molecules 3-fold increase, read-out: AK-based Prestwick Library Screening Results, A. baumannii (fold increase in extracellular AK activity)) was 2.1, the fold induction at 50 µM (P. aeruginosa; planktonic, cutoff for positive-scoring molecules 3-fold increase, read-out: AK-based Prestwick Library Screening Results, P. aeruginosa (fold increase in extracellular AK activity)) was 9.7 and the fold induction at 50 µM (E. cloacae; planktonic, cutoff for positive-scoring molecules 3-fold increase, read-out: AK-based Prestwick Library Screening Results, E. cloacae (fold increase in extracellular AK activity)) was 1. For the same compound, the fold induction at 50 µM (E. coli; planktonic, cutoff for positive-scoring molecules 3-fold increase, read-out: AK-based Prestwick Library Screening Results, E. coli (fold increase in extracellular AK activity)) was 12.3.

From patent publication US10004701B2, “Methods and compositions for treating infection” (UNIVERSITY OF ROCHESTER, priority 2012, dated 2018)
